Assay results taken from patent publication US20110287026A1, “SIRT4 AND USES THEREOF” (President and Fellows of Harvard College, priority 2008, published 2011).

Experiments:
Type in all cases: cell-based, mouse
[1] = test system: fatty acid oxidation in primary hepatocytes; test: Oxidation of [3H]palmitate in primary hepatocytes
Experimental: Primary hepatocytes were isolated using a two-step perfusion protocol, based on previous methods (Lin et al., (2004) Cell 119, 121-135.). Briefly, livers were perfused first with Hanks balanced salt solution (HBSS, pH 7.4), containing glucose (1.0 g/l), EDTA (0.2 g/l), HCO3 (2.1 g/l) and KCl (0.4 g/l) for 5 minutes. Next, livers were perfused for 15 min with a collagenase buffer (pH 7.4, Invitrogen). After perfusion, livers were dissected, minced, filtered, and hepatocytes purified using Percoll (Sigma) and plated (500,000 cells per well) on collagen coated 6 well plates (BD Biosciences) in DMEM (4.5 g/l glucose) containing 10% FBS, 2 mM pyruvate, 2% Pen/strep, […] and 100 nM insulin. Typical primary hepatocyte isolations yielded 12-14×10^6 cells per liver with 96%-98% cell viability (assessed by Trypan blue exclusion assay). Two hours after plating, medium was replaced with maintenance medium (DMEM with 0.2% BSA, 2 mM pyruvate, 2% Pen/strep, 0.1 mM dexamethasone and 1 nM insulin). Fatty acid oxidation assays were performed one day after isolation.
Cells were incubated overnight in culture medium containing 100 μM palmitate (C16:0) and 1 mM carnitine. In the final 2 hours of incubation, cells were pulsed with 1.7 μCi [9,10(n)-^3H]palmitic acid (GE Healthcare), and the medium was collected to analyze the released ^3H2O, formed during cellular oxidation of [^3H]palmitate. In brief, medium was TCA precipitated, supernatants were neutralized with NaOH and loaded onto ion exchange columns packed with DOWEX 1×2-400 resin (Sigma). The radioactive product was eluted with water and quantitated by liquid scintillation counting. Oxidation of [^3H]palmitate was normalized to protein content using Bio-Rad DC protein assay.
Ultimately, the up-regulation of lipid catabolism gene expression during nutrient deprivation leads to enhanced rates of fatty acid oxidation. […] To test this model, the rates of oxidation of palmitate, a saturated long chain fatty acid, were analyzed in primary MEFs and primary hepatocytes isolated from SIRT4 WT and KO mice. […]

PPARα target gene Pdk4 = test: Induction of PPARα target gene Pdk4 in MEFs exposed to WY14643 (quantitative RT-PCR); conditions: 50 μM WY14643
Experimental: Mouse embryonic fibroblasts (MEFs) were isolated on embryonic day 12.5-14.5 from heterozygous females that were mated with heterozygous males. Primary MEFs were cultured in DMEM containing 10% FBS and 0.1 mM BME and were used between passages 2 and 5.
RNA was isolated from frozen liver tissue of overnight fasted mice or from cells using Trizol (Invitrogen) according to the manufacturer's instructions and further purified using RNeasy columns (Qiagen). Amplification and detection of target and reference cDNA samples was performed on a Lightcycler 480 (Roche) using Lightcycler 480 Sybr Green I Mastermix (Roche). A standard curve was generated for all genes using serial dilutions of a pool prepared from all cDNA samples. mRNA levels of target genes were normalized using beta 2 microglobulin (B2m), peptidyl-prolyl isomerase (Ppia) and ribosomal protein 16 (Rps16) as reference genes.
To determine whether SIRT4 is a bona fide repressor of PPARα in a cell-autonomous manner, the induction of the PPARα target gene Pdk4 was examined in SIRT4^−/− and SIRT4′^+/+ mouse embryonic fibroblast (MEF) cell lines exposed to the PPARα agonist WY14643 (WY), as described above.

[2] = test system: mitochondrial fatty acid oxidation in primary MEFs; test: Oxidation of [3H]palmitate in primary MEFs; conditions: SIRT4 KO and WT MEFs (both cell types)
Experimental: Mouse embryonic fibroblasts (MEFs) were isolated on embryonic day 12.5-14.5 from heterozygous females that were mated with heterozygous males. Primary MEFs were cultured in DMEM containing 10% FBS and 0.1 mM BME and were used between passages 2 and 5. Cells were incubated overnight in culture medium containing 100 μM palmitate (C16:0) and 1 mM carnitine. In the final 2 hours of incubation, cells were pulsed with 1.7 μCi [9,10(n)-^3H]palmitic acid (GE Healthcare), and the medium was collected to analyze the released ^3H2O, formed during cellular oxidation of [^3H]palmitate. In brief, medium was TCA precipitated, supernatants were neutralized with NaOH and loaded onto ion exchange columns packed with DOWEX 1×2-400 resin (Sigma). The radioactive product was eluted with water and quantitated by liquid scintillation counting. Oxidation of [^3H]palmitate was normalized to protein content using Bio-Rad DC protein assay. […] To test this model, the rates of oxidation of palmitate, a saturated long chain fatty acid, were analyzed in primary MEFs and primary hepatocytes isolated from SIRT4 WT and KO mice. The CPT1a inhibitor, etomoxir, (Baht and Saggerson, 1989) was used to specifically block mitochondrial import of fatty acids.

SMILES: NC(=O)C1CCCc2c1[nH]c1ccc(Cl)cc21 (stereo not drawn) [Ex 527]
- level of Fatty Acid Oxidation ([1]; SIRT4 KO hepatocytes): significantly reduced
- rate of Fatty Acid Oxidation ([1]; WT hepatocytes): did not significantly alter

SMILES: Cc1cccc(Nc2cc(Cl)nc(SCC(=O)O)n2)c1C [WY14643]
- stimulation of Pdk4 expression compared with WT cells (PPARα target gene Pdk4; MEFs lacking SIRT4): more than doubled
- increase in Pdk4 expression (PPARα target gene Pdk4; wild-type MEFs): 2 fold

SMILES: CCOC(=O)[C@@]1(CCCCCCOc2ccc(Cl)cc2)CO1 [etomoxir]
- fatty acid oxidation ([3H]palmitate) [2]: inhibited fatty acid oxidation strongly
- mitochondrial fatty acid oxidation ([3H]palmitate) ([1]; both WT and SIRT4 KO hepatocytes): effectively blocked mitochondrial fatty acid oxidation
